Source: patent publication US20050255131A1, “Clindamycin compositions and delivery system therefor” (priority 2004, published 2005)

Legend:
[1] = Solubility of clindamycin phosphate in water, glycerin and water/glycerin co-solvent; format: physicochemical
Source text: For the clindamycin phosphate solution, a maximum of about 6% salt is soluble in water. This solution is not stable upon long-term storage at elevated temperatures. In order to utilize the chamber in a chamber delivery system wherein the contents of a small chamber are combined with the contents of a larger chamber, compositions containing a concentration of clindamycin phosphate higher than 6% are desirable. In accordance with the present disclosure, solutions containing concentrations of clindamycin in excess of 6% in a minimum amount of water may be prepared by using co-solvents such as glycerin. Clindamycin phosphate by itself is not soluble in glycerin alone. […] Thus, the present compositions may contain a solution of water, clindamycin and glycerin, wherein the amount of water is insufficient alone to solubilize the clindamycin. The term “solubilize” as used with respect to solubilizing clindamycin refers to the ability to dissolve clindamycin and optionally with heating and stirring and maintaining clindamycin in solution at room temperature for at least 24 hours. […] By increasing the concentration of clindamycin in solution by means of a co-solvent such as glycerin, the present methods make it possible to dissolve the salt in a small amount of water. […]

[2] = Storage stability of clindamycin phosphate solutions; format: physicochemical; conditions: solution in water; elevated temperatures
Source text: For the clindamycin phosphate solution, a maximum of about 6% salt is soluble in water. This solution is not stable upon long-term storage at elevated temperatures. In order to utilize the chamber in a chamber delivery system wherein the contents of a small chamber are combined with the contents of a larger chamber, compositions containing a concentration of clindamycin phosphate higher than 6% are desirable. In accordance with the present disclosure, solutions containing concentrations of clindamycin in excess of 6% in a minimum amount of water may be prepared by using co-solvents such as glycerin. Clindamycin phosphate by itself is not soluble in glycerin alone. […] Thus, the present compositions may contain a solution of water, clindamycin and glycerin, wherein the amount of water is insufficient alone to solubilize the clindamycin. The term “solubilize” as used with respect to solubilizing clindamycin refers to the ability to dissolve clindamycin and optionally with heating and stirring and maintaining clindamycin in solution at room temperature for at least 24 hours.

solubility in glycerin alone ([1]; glycerin alone, no water): not soluble | maximum salt soluble in water ([1]; water alone): about 6% | stability of aqueous solution upon long-term storage [2]: not stable
SMILES: CCC[C@@H]1C[C@@H](C(=O)N[C@@H]([C@H]2O[C@H](SC)[C@H](OP(=O)(O)O)[C@@H](O)[C@H]2O)[C@H](C)Cl)N(C)C1 [clindamycin phosphate]
